Experiments:
Type in all cases: cell-based
[1] = system: E. coli BL21; assay: MIC against Gram-negative bacteria: E. coli BL21; details: E. coli BL21; for MIC against E. coli BL21 / MIC (μg/mL) E. coli BL21: 5×10^5 CFU/mL
Summary of the method: (§1)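 MIC, the lowest recombinant protein concentration giving no bacterial growth, found by two-fold serial dilution of human EGF-domain proteins in triplicate. Inoculum 5×10^5 CFU/mL in LB from cultures at McFarland 0.5; plates incubated at 37° C, 175 rpm shaking.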

[2] = system: Serratia marcescens; assay: MIC against Gram-negative bacteria: Serratia marcescens; details: for MIC against S. marcescens / MIC (μg/mL) S. marcescens: 5×10^5 CFU/mL
Summary of the method: as §1

[3] = system: Klebsiella pneumonia; assay: MIC against Gram-negative bacteria: Klebsiella pneumonia; details: for MIC against K. pneumonia / MIC (μg/mL) K. pneumonia: 5×10^5 CFU/mL
Summary of the method: as §1

[4] = system: Proteus vulgaris; assay: MIC against Gram-negative bacteria: Proteus vulgaris; details: for MIC against P. vulgaris / MIC (μg/mL) P. vulgaris: 5×10^5 CFU/mL
Summary of the method: as §1

[5] = system: Enterobacter cloacae; assay: MIC against Gram-negative bacteria: Enterobacter cloacae; details: for MIC against E. cloacae / MIC (μg/mL) E. cloacae: 5×10^5 CFU/mL
Summary of the method: as §1

[6] = system: Proteus mirabilis; assay: MIC against Gram-negative bacteria: Proteus mirabilis; details: for MIC against P. mirabilis / MIC (μg/mL) P. mirabilis: 5×10^5 CFU/mL
Summary of the method: as §1

[7] = system: Moraxella catarrhalis; assay: MIC against Gram-negative bacteria: Moraxella catarrhalis; details: for MIC against M. catarrhalis / MIC (μg/mL) M. catarrhalis: 5×10^5 CFU/mL
Summary of the method: as §1

[8] = system: Pseudomonas aeruginosa; assay: MIC against Gram-negative bacteria: Pseudomonas aeruginosa; details: for MIC against P. aeruginosa / MIC (μg/mL) P. aeruginosa: 5×10^5 CFU/mL
Summary of the method: as §1

[9] = system: E. coli DH5α; assay: Antibacterial activity: MIC and growth curve against E. coli DH5α in 96-well plate; details: minimal inhibitory concentration against E. coli DH5α; 96-well plate, 5×10^5 CFU/mL, 37° C., judged after 8 h
Summary of the method: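 Log-phase bacteria (OD600 ~0.5) resuspended in LB at 5×10^5 CFU/mL, exposed to recombinant protein at 50, 25, 12.5 μg/mL final in triplicate, 37 °C shaking at 175 rpm. OD600 read every 30 min; MIC is lowest concentration showing no growth.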

[10] = system: Aeromonas hydrophila; assay: MIC against Gram-negative bacteria: Aeromonas hydrophila; details: for MIC against A. hydrophila / MIC (μg/mL) A. hydrophila: 5×10^5 CFU/mL
Summary of the method: as §1

[11] = system: Citrobacter diversus; assay: MIC against Gram-negative bacteria: Citrobacter diversus; details: for MIC against C. diversus / MIC (μg/mL) C. diversus: 5×10^5 CFU/mL
Summary of the method: as §1

[12] = Serratia marcescens, 96-well plate, 37° C., 10 h
[13] = Klebsiella pneumonia, 96-well plate, 37° C., 10 h
[14] = Proteus vulgaris, 96-well plate, 37° C., 10 h
[15] = Enterobacter cloacae, 96-well plate, 37° C., 10 h
[16] = Proteus mirabilis, 96-well plate, 37° C., 10 h
[17] = Moraxella catarrhalis, 96-well plate, 37° C., 10 h
[18] = Pseudomonas aeruginosa, 96-well plate, 37° C., 10 h
[19] = Aeromonas hydrophila, 96-well plate, 37° C., 10 h
[20] = Citrobacter diversus, 96-well plate, 37° C., 10 h
[21] = S. marcescens, 10 h cultivation at 37° C.
[22] = K. pneumonia, 10 h cultivation at 37° C.
[23] = P. vulgaris, 10 h cultivation at 37° C.
[24] = E. cloacae, 10 h cultivation at 37° C.
[25] = P. mirabilis, 10 h cultivation at 37° C.
[26] = M. catarrhalis, 10 h cultivation at 37° C.
[27] = P. aeruginosa, 10 h cultivation at 37° C.
[28] = A. hydrophila, 10 h cultivation at 37° C.
[29] = C. diversus, 10 h cultivation at 37° C.

Substance: PRT1313 (VADLCQDGHGGCSEHANCSQVGTMVTCTCLPDYEGDGWSCR; listed as Homo sapiens)
- MIC against E. coli BL21 ([1]; 96-well plate, 37° C., 10 h): 25 µg/mL
- MIC against S. marcescens [2, 12]: 50 µg/mL
- MIC against K. pneumonia [3, 13]: 25 µg/mL
- MIC against P. vulgaris [4, 14]: 12.5 µg/mL
- MIC against E. cloacae [5, 15]: 12.5 µg/mL
- MIC against P. mirabilis [6, 16]: 50 µg/mL
- MIC against M. catarrhalis [7, 17]: 12.5 µg/mL
- MIC against P. aeruginosa [8, 18]: 50 µg/mL
- MIC [9]: 12.5 µg/mL
- MIC against A. hydrophila [10, 19]: 25 µg/mL
- MIC against C. diversus [11, 20]: 50 µg/mL

Substance: PRT143 (PRNPCRMSCQNHGRLNISTCHCHCPPGYTGRYCQ; listed as Homo sapiens)
- MIC (μg/mL) E. coli BL21 ([1]; 96-well plate, 37° C., 10 h): 12.5 µg/mL
- MIC (μg/mL) S. marcescens [2, 12]: 25 µg/mL
- MIC (μg/mL) K. pneumonia [3, 13]: 12.5 µg/mL
- MIC (μg/mL) P. vulgaris [4, 14]: 12.5 µg/mL
- MIC (μg/mL) E. cloacae [5, 15]: 12.5 µg/mL
- MIC (μg/mL) P. mirabilis [6, 16]: 25 µg/mL
- MIC (μg/mL) M. catarrhalis [7, 17]: 50 µg/mL
- MIC (μg/mL) P. aeruginosa [8, 18]: 12.5 µg/mL
- MIC [9]: 12.5 µg/mL
- MIC (μg/mL) A. hydrophila [10, 19]: 12.5 µg/mL
- MIC (μg/mL) C. diversus [11, 20]: 12.5 µg/mL

Substance: PRT1021 (LQNPCYIGTHGCDTNAACRPGPRTQFTCECSIGFRGDGRTCY; listed as Homo sapiens)
- MIC ([1]; 10 h cultivation at 37° C.): 12.5 µg/mL
- MIC [2, 21]: 50 µg/mL
- MIC [3, 22]: 50 µg/mL
- MIC [4, 23]: 12.5 µg/mL
- MIC [5, 24]: 25 µg/mL
- MIC [6, 25]: 50 µg/mL
- MIC [7, 26]: 12.5 µg/mL
- MIC [8, 27]: 25 µg/mL
- MIC [9]: 25 µg/mL
- MIC [10, 28]: 12.5 µg/mL
- MIC [11, 29]: 50 µg/mL

Substance: PRT1038 (FDMPCDETLCSADSFCVNDYTWGGSRCQCTLGKGGESCS; listed as Homo sapiens)
- MIC ([1]; 10 h cultivation at 37° C.): 12.5 µg/mL
- MIC [2, 21]: 25 µg/mL
- MIC [3, 22]: 50 µg/mL
- MIC [4, 23]: 12.5 µg/mL
- MIC [5, 24]: 50 µg/mL
- MIC [6, 25]: 50 µg/mL
- MIC [7, 26]: 50 µg/mL
- MIC [8, 27]: 50 µg/mL
- MIC [9]: 50 µg/mL
- MIC [10, 28]: 12.5 µg/mL
- MIC [11, 29]: 25 µg/mL

Substance: PRT45 (SINSCPNNCSGHGKCTTSVSVPSQVYCECDKYWKGEACD; listed as Homo sapiens)
- MIC (μg/mL) E. coli BL21 ([1]; 96-well plate, 37° C., 10 h): 25 µg/mL
- MIC (μg/mL) S. marcescens [2, 12]: 50 µg/mL
- MIC (μg/mL) K. pneumonia [3, 13]: 25 µg/mL
- MIC (μg/mL) P. vulgaris [4, 14]: 12.5 µg/mL
- MIC (μg/mL) E. cloacae [5, 15]: 50 µg/mL
- MIC (μg/mL) P. mirabilis [6, 16]: 50 µg/mL
- MIC (μg/mL) M. catarrhalis [7, 17]: 25 µg/mL
- MIC (μg/mL) P. aeruginosa [8, 18]: 12.5 µg/mL
- MIC [9]: 50 µg/mL
- MIC (μg/mL) A. hydrophila [10, 19]: 25 µg/mL
- MIC (μg/mL) C. diversus [11, 20]: 12.5 µg/mL

Substance: PRT1439 (EEDECAKPDRGGCEQRCLNTLGSYQCACEPGYELGPDRRSCE; listed as Homo sapiens)
- MIC against E. coli BL21 ([1]; 10 h cultivation at 37° C.): 12.5 µg/mL
- MIC against S. marcescens ([2]; Serratia marcescens, 10 h cultivation at 37° C.): 50 µg/mL
- MIC against K. pneumonia ([3]; Klebsiella pneumonia, 10 h cultivation at 37° C.): 12.5 µg/mL
- MIC against P. vulgaris ([4]; Proteus vulgaris, 10 h cultivation at 37° C.): 12.5 µg/mL
- MIC against E. cloacae ([5]; Enterobacter cloacae, 10 h cultivation at 37° C.): 50 µg/mL
- MIC against P. mirabilis ([6]; Proteus mirabilis, 10 h cultivation at 37° C.): 50 µg/mL
- MIC against M. catarrhalis ([7]; Moraxella catarrhalis, 10 h cultivation at 37° C.): 12.5 µg/mL
- MIC against P. aeruginosa ([8]; Pseudomonas aeruginosa, 10 h cultivation at 37° C.): 50 µg/mL
- MIC [9]: 50 µg/mL
- MIC against A. hydrophila ([10]; Aeromonas hydrophila, 10 h cultivation at 37° C.): 12.5 µg/mL
- MIC against C. diversus ([11]; Citrobacter diversus, 10 h cultivation at 37° C.): 50 µg/mL

Substance: PRT785 (IHTCNCHNGAFCSAYDGECKCTPGWTGLYCT; listed as Homo sapiens)
- MIC (μg/mL) E. coli BL21 ([1]; 10 h cultivation at 37° C.): 50 µg/mL
- MIC (μg/mL) S. marcescens [2, 21]: 50 µg/mL
- MIC (μg/mL) K. pneumonia [3, 22]: 25 µg/mL
- MIC (μg/mL) P. vulgaris [4, 23]: 25 µg/mL
- MIC (μg/mL) E. cloacae [5, 24]: 12.5 µg/mL
- MIC (μg/mL) P. mirabilis [6, 25]: 50 µg/mL
- MIC (μg/mL) M. catarrhalis [7, 26]: 25 µg/mL
- MIC (μg/mL) P. aeruginosa [8, 27]: 25 µg/mL
- MIC [9]: 25 µg/mL
- MIC (μg/mL) A. hydrophila [10, 28]: 50 µg/mL
- MIC (μg/mL) C. diversus [11, 29]: 12.5 µg/mL

— US9833497B2, “Human originated EGF domain proteins and use of the same” (CHENGDU SOURCEBIO LIMITED-LIABILITY COMPANY, priority 2013, dated 2017)
